Test results reported in patent US9029095B2, “Method and kits for determining platelet susceptibility to activation in a patient” (Institut National de la Sante et de la Recherche Medicale …, priority 2010, dated 2015).
“And” between values parts separate entries of the source, which are not always exact repeats. Identical values can stand only once. “Also recorded” adds a separate entry of the source. Like-named read-outs stand apart in the source and are kept apart here. Values belong to the molecule of their own block, whether it stands above or below them.

Legend:
[1] = tested on: GPVI dimerization on platelets; test: Effect of agonists and inhibitors on 9E18 binding to platelets (GPVI dimerization), flow cytometry; format: cell-based, human; conditions: for effect on 9E18 binding / GPVI dimerization of activated platelets / effect on 9E18 binding to resting as well as activated platelets: ADP-; for effect on 9E18 binding / GPVI dimerization of activated platelets: TRAP- or PMA-activated platelets; for effect on 9E18 binding to resting as well as activated platelets: TRAP- or PMA-activated washed platelets
[2] = molecular target: T1, GPVI dimers on shear-activated platelets (Homo sapiens, UniProt Q9HCN6); test: Shear-induced platelet activation, 9E18 binding; format: cell-based; conditions: washed platelets
T1 construct: Blood was obtained from healthy volunteers; endogenous in cells; host or cells: human platelets (whole blood, PRP, washed platelets or lysates) from healthy volunteers or coronary artery disease patients
T1 sequence (Q9HCN6 21-339): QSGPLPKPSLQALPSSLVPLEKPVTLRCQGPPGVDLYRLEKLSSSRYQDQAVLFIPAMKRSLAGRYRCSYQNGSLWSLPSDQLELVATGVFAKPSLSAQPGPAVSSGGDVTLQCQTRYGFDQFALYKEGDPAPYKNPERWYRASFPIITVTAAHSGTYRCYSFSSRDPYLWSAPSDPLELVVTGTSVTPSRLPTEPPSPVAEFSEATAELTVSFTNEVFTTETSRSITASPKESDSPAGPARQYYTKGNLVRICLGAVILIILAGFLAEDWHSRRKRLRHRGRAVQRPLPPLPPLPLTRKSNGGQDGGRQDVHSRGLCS
T1 sequence (P30273 19-86 partner): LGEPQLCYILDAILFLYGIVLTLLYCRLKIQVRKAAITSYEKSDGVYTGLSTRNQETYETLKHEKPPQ

[3] = tested on: ADP-induced GPVI dimerization; test: ADP-induced 9E18 binding to platelets (PRP) of patients treated with P2Y12 antagonists, ex vivo; format: in vivo, human
Description: FIG. 3: 9E18 as a marker of platelet activation and reactivity: Blood samples were obtained from (A) a cohort of patients with coronary artery disease admitted for percutaneous coronary intervention (n=45) and (B) healthy volunteers (n=40). For each subject, GPVI dimerization, represented by the extent of 9E18 positive platelets, is plotted against P-selectin exposure. Blood samples were obtained from (C) patients treated by prasugel and (D) healthy volunteers. For each subject the binding of FITC-coupled 9E18 to platelets was measured by flow cytometry after incubation of the PRP with buffer or ADP (10 μM) for 20 min.
FIG. 4: 9E18 as a marker of platelet activation and reactivity A: 9E18 binding to platelets and P-selectin exposure were measured in blood samples (PRP) obtained from a cohort of patients with CAD admitted for percutaneous coronary intervention (n=45). B: ADP-induced binding of 9E18 to platelets was measured on blood samples (PRP) from normal subjects and patients with CAD treated by clopidogrel (n=26). Results are expressed as the ratio between the levels of 9E18 binding to ADP-stimulated/non-stimulated samples×100.C: ADP-induced binding to platelets of patients treated by clopidogrel was plotted against corresponding data of the VASP phosphorylation assay.
Blood samples were obtained from a cohort of patients with coronary artery disease (CAD) referred to the department of cardiology of Bichat hospital for percutaneous coronary intervention (BIOCORE-2 study, Clinical Trial Registration—URL: http://clinicaltrials.gov/ct2/show/NCT01186666?term=NCT01186666&rank=1). The study complies with the Declaration of Helsinky and was approved by the institutional ethics committee. All of the patients provided written informed consent. Blood was drawn on 0.109M citrate the day after percutaneous coronary intervention (PCI). PRP, a waste of the established protocol, was used for this study. Analysis was performed less than one hour after blood sampling, on PRP using FITC-coupled 9E18, 3J24 or anti-P-selectin. […]

FcRγ = FcRγ phosphorylation in activated platelets; format: cell-based, human; conditions: conditions leading to GPVI dimerization
[4] = tested on: platelet adhesion to immobilized collagen; test: GPVI-dependent platelet adhesion to immobilized collagen (static); format: cell-based, human; conditions: PMA-treated platelets
[5] = tested on: P-selectin exposure on platelets; test: P-selectin exposure on platelets, flow cytometry; format: cell-based, human; conditions: washed platelets
[6] = molecular target: T2, 9E18 binding to immobilized GPVI-Fc (Homo sapiens, UniProt Q9HCN6); test: Competition: binding of 9E18 to immobilized GPVI-Fc in presence of soluble GPVI
T2 construct: Recombinant soluble GPVI was obtained as the extracellular domain of human GPVI; made in house; host or cells: HEK cells
T2 sequence (Q9HCN6 21-267 limits assumed): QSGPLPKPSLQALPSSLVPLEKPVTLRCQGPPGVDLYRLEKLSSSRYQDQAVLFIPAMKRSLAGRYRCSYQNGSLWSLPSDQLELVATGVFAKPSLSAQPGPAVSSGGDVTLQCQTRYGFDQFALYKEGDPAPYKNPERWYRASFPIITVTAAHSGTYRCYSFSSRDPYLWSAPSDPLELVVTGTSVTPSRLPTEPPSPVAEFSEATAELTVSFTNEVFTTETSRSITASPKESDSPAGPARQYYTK

[7] = molecular target: T3, 9E18 binding to stimulated platelets (Homo sapiens, UniProt Q9HCN6); test: Inhibition of 9E18 binding to stimulated platelets by soluble GPVI or IV.3; format: cell-based
T3 construct: Blood was obtained from healthy volunteers; endogenous in cells; host or cells: human platelets (whole blood, PRP, washed platelets or lysates) from healthy volunteers or coronary artery disease patients
T3 sequence (Q9HCN6 21-339): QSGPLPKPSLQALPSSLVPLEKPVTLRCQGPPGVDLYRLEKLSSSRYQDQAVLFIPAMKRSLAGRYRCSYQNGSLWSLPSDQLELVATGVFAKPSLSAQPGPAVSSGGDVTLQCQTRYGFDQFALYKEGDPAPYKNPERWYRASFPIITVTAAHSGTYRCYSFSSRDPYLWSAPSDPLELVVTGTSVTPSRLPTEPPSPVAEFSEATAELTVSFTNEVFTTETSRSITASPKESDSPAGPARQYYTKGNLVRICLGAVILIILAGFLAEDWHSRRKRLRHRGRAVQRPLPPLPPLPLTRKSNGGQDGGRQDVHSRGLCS
T3 sequence (P30273 19-86 partner): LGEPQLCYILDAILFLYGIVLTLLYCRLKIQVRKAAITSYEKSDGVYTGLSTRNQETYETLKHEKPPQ
Procedure: Resting and activated platelets (5×10^7 mL^−1 in whole blood or PRP or buffer) were incubated with FITC-coupled anti-GPVI or P-selectin antibodies for 20 min and, when needed fixed with 1% PFA. Samples were analyzed by flow cytometry using Epics XL.MCL (Coulter) or LSRII (Becton Dickinson Biosciences) apparatus. Platelet glycoprotein quantification was performed using the quantification kit, Platelet GP screen (Byocytex, Marseille, France).

collagen = test: Binding of recombinant soluble GPVI to collagen (purified proteins, microtitration wells); parameters: species or system equine; conditions: Example 1

Molecule: Cc1ccc(-c2nn(C(C)(C)C)c3ncnc(N)c23)cc1 [PP1]
level of PMA-induced 9E18 binding in presence of inhibitor ([1]; 20 μM inhibitor, PMA-treated platelets): 28.4%

Molecule: CNC[C@H](O)c1ccc(O)c(O)c1 [Epinephrine]
factor of increase of 9E18 binding to platelets [1]: 1.5

effect of addition on shear-induced platelet aggregation and level of 9E18 binding [2]: parallel increase
Molecule: vWF: von Willebrand factor added to washed platelets

Molecule: COC(=O)[C@H](c1ccccc1Cl)N1CCc2sccc2C1 [clopidogrel, (+)-(S)-methyl 2-(2-chlorophenyl)-2-(6,7-dihydrothieno[3,2-c]pyridin-5(4H)-yl)acetate]
ADP-induced 9E18 binding response in treated patients vs normal subjects ([3]; 75 mg, PRP): highly significant reduction

Molecule: CSc1nc(N)c2ncn([C@@H]3O[C@H](COP(=O)(O)O)[C@@H](O)[C@H]3O)c2n1 [2MeSAMP]
effect on 9E18 binding to ADP- or TRAP-stimulated platelets [1]: inhibited; also recorded: prevented | effect on ADP-induced 9E18 binding to platelets [1]: blocked

Molecule: CC(=O)N[C@@H](C(=O)O)C(C)(C)SN=O (racemic) [SNAP]
effect on 9E18 binding / GPVI dimerization of activated platelets [1]: same effect; also recorded: inhibited | effect on 9E18 binding to resting as well as activated platelets [1]: inhibited

Molecule: apyrase
effect on ADP-induced 9E18 binding to platelets ([1]; ADP): fully prevented | inhibition of ADP-induced binding of 9E18 ([1]; ADP): 85% | reduction of TRAP-induced binding of 9E18 [1]: 75% | reduction of TRAP-induced binding of 9E18 ([1]; listed as Apyrase): 50%

Molecule: CCCCCCCCCCCCCC(=O)O[C@@H]1[C@@H](C)[C@@]2(O)[C@@H](C=C(CO)C[C@]3(O)C(=O)C(C)=C[C@@H]23)[C@@H]2C(C)(C)[C@]12OC(C)=O [PMA]
effect of agonist on binding of 9E18 to platelets [1]: significantly increased | level of 9E18 binding to PMA-treated platelets ([1]; PMA alone): 31.5±4% and 27.7% | FcRγ phosphorylation in activated platelets (FcRγ): not phosphorylated | effect on GPVI-dependent platelet adhesion to immobilized collagen [4]: increase

Molecule: CCCCC[C@H](O)/C=C/[C@H]1[C@H](O)CC(=O)[C@@H]1CCCCCCC(=O)O [PGE1, prostaglandin E1]
effect on 9E18 binding to ADP- or TRAP-stimulated platelets ([1]; ADP or TRAP): dropped to basal level | effect on 9E18 binding / GPVI dimerization of activated platelets [1]: drastically reduced; also recorded: inhibited | effect on PMA-induced 9E18 binding to platelets ([1]; PMA): greatly decreased | effect on 9E18 binding in the absence of agonist ([1]; preincubation, no agonist): lowered | effect on 9E18 binding to resting as well as activated platelets [1]: reduced

Molecule: COc1ccc2c(c1)c(CC(=O)O)c(C)n2C(=O)c1ccc(Cl)cc1 [indomethacine, Indomethacin]
effect on 9E18 binding to ADP- or TRAP-stimulated platelets ([1]; ADP or TRAP): no effect

Molecule: Nc1ncnc2c1ncn2[C@@H]1O[C@H](COP(=O)(O)OP(=O)(O)O)[C@@H](O)[C@H]1O [ADP, adenosine diphosphate]
surface exposure of P-selectin induced by agonist [5]: induced surface exposure of P-selectin | effect of agonist on binding of 9E18 to platelets [1]: increased | FcRγ phosphorylation in activated platelets (FcRγ): not phosphorylated

Molecule: CC(=O)Oc1cc2c(s1)CCN(C(C(=O)C1CC1)c1ccccc1F)C2 (stereo not shown) [prasugrel]
ADP-induced increase of 9E18 binding to platelets of treated patients ([3]; PRP, ADP 10 μM, good responders by VASP test): not to platelets of 9 patients treated by prasugrel; also recorded: blocked | 9E18 binding and VASP phosphorylation in response to ADP ([3]; one treated patient (low response)): remained increased

IC50, inhibition of 9E18 binding to immobilized GPVI-Fc by soluble GPVI [6]: 3.7 ± 2.2 µg/mL | inhibition of 9E18 binding to GPVI-Fc ([6]; GPVI-His up to 10 μg·mL^−1): 70% | IC50 ([6]; molar value in brackets, Example 1, read-out: IC50, inhibition of 9E18 binding to immobilized GPVI-Fc by soluble GPVI): 74 nM | Kd ([6]; value in brackets after IC50, Example 2, read-out: Kd from competition of 9E18 binding to GPVI-Fc): 78 nM | inhibition of 9E18 binding to stimulated platelets [7]: not | inhibition of 9E18 binding to stimulated platelets ([7]; listed as monomers): not by monomers | affinity for collagen (collagen): 14.7 ± 3.27 µg/mL
B1: GPVI-His: extracellular domain of human GPVI fused to a poly-His Tag, monomeric (protein, UniProt Q9HCN6 21-267, looked up)
extracellular domain: QSGPLPKPSLQALPSSLVPLEKPVTLRCQGPPGVDLYRLEKLSSSRYQDQAVLFIPAMKRSLAGRYRCSYQNGSLWSLPSDQLELVATGVFAKPSLSAQPGPAVSSGGDVTLQCQTRYGFDQFALYKEGDPAPYKNPERWYRASFPIITVTAAHSGTYRCYSFSSRDPYLWSAPSDPLELVVTGTSVTPSRLPTEPPSPVAEFSEATAELTVSFTNEVFTTETSRSITASPKESDSPAGPARQYYTK
modifications: extracellular domain poly-His tag
notes: extracellular domain of human GPVI fused to a poly-His Tag, monomeric
